Measured values published in patent EP3626820A1, “ANTICANCER COMPOSITIONS CONTAINING MIRNA MIMICS AND USES THEREOF” (Fundación Imdea Nanociencia, priority 2018, dated 2020).

Tests used:
Mel 202 cells [1] = assay: alamarBlue cell viability assay; format: cell-based; conditions: Mel202, SN38 incubated 24 h, alamarBlue after additional 24 h
Protocol: Mel 202 cells were cultured in RPMI medium with 10 % fetal bovine serum (FBS), 1 % […]-Penicillin and 1 % L-Glutamine at 37 °C in an incubator. All the procedures were performed inside a laminar flow hood Telstar CV-30/70. Cells were grown in 24 wells plates (30000 cells).
stock solution of Resazurin sodium salt (1 mg/ml) in PBS was diluted 1 % (v/v) in complete RPMI. After incubation 3 h with the cells, the fluorescence was measured in a plate reader Synergy H4 Hybrid reader (BioTEK). Excitation (Ex) 550 nm; Emission (Em) 590 nm.
50 µl OptiMem was mixed with oligonucleotides (14, 15, 16, 17) or DNA mix 1. Then, it was mixed with 1 µl Lipofectamine 2000 in 50 µl optiMEM. The final mixture was incubated for 20 min and then 100 µl was added to cells. The final concentration of 14, 15, 16, 17 or DNA mix 1 was 140 nM. After 24 h the cells were washed 3 times with saline phosphate buffer (PBS) and complete medium was added.
SN38 stock solution was prepared at 100 µM in DMSO. Then different concentrations of SN38 (100 nM, 50 nM, 25 nM) were prepared in complete medium. It was incubated 24 h with the cells, then washed with PBS. After additional 24 h, the alamarBlue assay was carried out. […]
A volume of 100 µ L functionalized AuNPs were added in optiMEM (500 µ L total volume). The cells were incubated for 24 h, washed with PBS and the viability assessed.

Mel 202 cells [2] = assay: Cell cycle analysis by flow cytometry (propidium iodide); format: cell-based; conditions: Mel 202 cells harvested after treatment; SN38 25 nM; free (not on nanoparticles)
Protocol: The samples were trypsinized (BioWest) and fixed with paraformaldehyde 1 % (v/v). The samples were stained for 3 h with 10 µ g/sample RNAsa A from Thermo Scientific and 20 µ g/sample propidium iodide from Sigma. The cell cycle analysis was performed in a Beckman coulter Cytomics 500 Flow cytometer and acquired data were analyzed with the Multicycle software.
These experiments were performed in cytometry service of Biotechnology National Centre of Spain.

`CCc1c2c(nc3ccc(O)cc13)-c1cc3c(c(=O)n1C2)COC(=O)[C@]3(O)CC` [SN38, 7-ethyl-10-hidroxycamptothecin] was tested, and the IC50 (Mel 202 cells [1]) was 100 nM and the “effect on the cell cycle” value (Mel 202 cells [2]) was “significantly increases G2/M”.
